Experimental data published in US11123311B2, “Methods of treating mental disorders” (The Regents of the University of California, priority 2016, dated 2021).

Experiments:
PC12 cells = test: NGF-induced neurite outgrowth in PC12 cells; type: cell-based; conditions: TPPU 0.1, 1.0 or 10 μM, 14,15-EET 0.01, 0.1 or 1.0 μM, concentration dependent
Procedure: PC12 cells (RIKEN Cell Bank, Tsukuba, Japan) were cultured at 37° C., 5% CO2 in Dulbecco's modified Eagle's medium (DMEM), supplemented with 5% heat-inactivated fetal bovine serum (FBS), 10% heat-inactivated horse serum, and 1% penicillin-streptomycin. Medium was changed two to three times a week. PC12 cells were plated onto 24-well tissue culture plates coated with poly-D-lysine/laminin. Cells were plated at relatively low density (0.25×10^4 cells/cm^2) in DMEM medium containing 0.5% FBS, 1% penicillin-streptomycin. Medium containing a minimal level of serum (0.5% FBS) was used as previously reported (58-60). […]. Four days after incubation with NGF (2.5 ng/ml) with or without specified compounds, morphometric analysis was performed on digitized images of live cells taken under phase-contrast illumination, with an inverted microscope linked to a camera. Images of three fields per well were taken, with an average of 100 cells per field. Differentiated cells were counted by visual examination of the field; only cells that had at least one neurite with a length equal to the cell body diameter were counted, and were then expressed as a percentage of the total cells in the field. Counting was performed in a blinded manner.

neuronal cell cultures = conditions: literature (34); cited from earlier work
astrocyte = conditions: literature (54); cited from earlier work
sEH [1] = target: T1, sEH (Homo sapiens (Human), UniProt P34913); test: inhibition of sEH (standard assays); type: biochemical
T1 sequence (P34913 whole entry): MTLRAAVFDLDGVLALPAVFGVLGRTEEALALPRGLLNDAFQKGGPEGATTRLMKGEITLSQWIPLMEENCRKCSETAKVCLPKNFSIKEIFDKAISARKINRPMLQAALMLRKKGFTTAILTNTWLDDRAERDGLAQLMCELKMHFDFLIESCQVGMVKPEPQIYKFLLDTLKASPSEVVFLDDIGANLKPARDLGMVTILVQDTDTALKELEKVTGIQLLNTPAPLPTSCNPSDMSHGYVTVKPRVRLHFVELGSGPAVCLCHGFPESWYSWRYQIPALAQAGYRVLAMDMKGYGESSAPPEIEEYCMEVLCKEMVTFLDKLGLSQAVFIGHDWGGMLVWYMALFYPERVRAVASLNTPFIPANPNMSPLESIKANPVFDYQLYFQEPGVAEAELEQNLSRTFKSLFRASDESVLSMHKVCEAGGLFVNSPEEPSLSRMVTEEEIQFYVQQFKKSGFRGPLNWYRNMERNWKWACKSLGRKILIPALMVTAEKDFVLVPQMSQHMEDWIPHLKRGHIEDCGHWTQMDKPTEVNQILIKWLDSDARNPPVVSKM
Text: Any of a number of standard assays for determining epoxide hydrolase activity can be used to determine inhibition of sEH. […] Suitable in vitro assays are described in Zeldin et al., J Biol. Chem. 268:6402-6407 (1993). Suitable in vivo assays are described in Zeldin et al., Arch Biochem Biophys 330:87-96 (1996).
The enzyme also can be detected based on the binding of specific ligands to the catalytic site which either immobilize the enzyme or label it with a probe such as dansyl, fluoracein, luciferase, green fluorescent protein or other reagent. The enzyme can be assayed by its hydration of EETs, its hydrolysis of an epoxide to give a colored product as described by Dietze et al., 1994, supra, or its hydrolysis of a radioactive surrogate substrate (Borhan et al., 1995, supra). The enzyme also can be detected based on the generation of fluorescent products following the hydrolysis of the epoxide. Numerous methods of epoxide hydrolase detection have been described (see, e.g., Wixtrom, supra).
The assays are normally carried out with a recombinant enzyme following affinity purification. They can be carried out in crude tissue homogenates, cell culture or even in vivo, as known in the art and described in the references cited above.

experimental logP = type: physicochemical; conditions: read-out: Exp/ logP
sEH [2] = target: T1, sEH
[3] = tested on: mice after social defeat stress; conditions: single dose; literature (37,39); cited from earlier work
TNF-α = test: serum TNF-α after LPS administration; type: in vivo; conditions: TPPU 3.0 mg/kg PO
Procedure: Inflammation model of depression. The procedure of inflammation model of depression was performed as previously reported (36). Behavioral tests were performed 24 hours after a single administration of LPS (0.5 mg/kg). […] Serum sample was collected 90 min after LPS administration, and serum levels of TNF-α were measured using a Ready-SET-Go ELISA kit (eBioscience Inc., San Diego, Calif.), according to manufacturer's instructions. […] Behavioral tests including locomotion (LMT), tail suspension test (TST), and forced swimming test (FST) were performed 1, 3, and 5 hours after administration. […] Behavioral tests including LMT, TST, and FST were performed 24, 26, and 28 hours after administration of LPS.

[4] = 3 mg/kg PO; mice
in vivo = conditions: mouse, po, 3 mg/kg, 3 mg/kg PO, mice
[5] = tested on: LPS-treated depressed mice; conditions: literature (36); cited from earlier work

## CCCCCC1OC1C/C=C\C/C=C\C/C=C\CCCC(=O)O (stereo not drawn) [14,15-EET]
PC12 cells
  NGF-induced neurite outgrowth: potentiated
Neuronal cell cultures
  axonal growth: enhance axonal growth
astrocyte
  production of BDNF: promote the production of BDNF

## CCCCCCCCCCCCNC(=O)NC12CC3CC(CC(C3)C1)C2 [ADU, N-Adamantyl-N′-dodecyl urea]
sEH [1]
  activity as an inhibitor of sEH: particularly high activity

## O=C(Nc1ccc(OC(F)(F)F)cc1)NC1CCN(C(=O)C2(C(F)(F)F)CC2)CC1 [Compound 28]
Experimental logP
  logP: 4.63

## CC[C@H](C)C(=O)N1CCC(NC(=O)Nc2ccc(C(F)(F)F)nc2)CC1 [Compound 42]
Experimental logP
  logP: 3.22
sEH [2]
  t1/2 (human sEH): 3.7 min

## CC(C)C(=O)N1CCC(NC(=O)Nc2ccc(OC(F)(F)F)cc2)CC1 [Compound 2389]
Experimental logP
  logP: 3.37
sEH [2]
  t1/2 (human sEH): 18 min

## CN[C@@]1(c2ccccc2Cl)CCCCC1=O [R-ketamine]
[3]
  antidepressant effect in the social defeat stress model: rapid antidepressant effect

## CCC(=O)N1CCC(NC(=O)Nc2ccc(OC(F)(F)F)cc2)CC1 [TPPU]
TNF-α
  serum levels of TNF-α in control mice: no effect
[4]
  half-life in the blood (plasma): 17.8 h
  half-life in the cerebral cortex: 10.7 h
In vivo; half-life in the blood (plasma)
  half-life: 1070 min
In vivo; half-life in the cerebral cortex
  half-life: 642 min

## CNC1(c2ccccc2Cl)CCCCC1=O (stereo not drawn) [ketamine]
[3]
  antidepressant effect in the social defeat stress model: rapid antidepressant effect

## Fc1ccc([C@@H]2CCNC[C@H]2COc2ccc3c(c2)OCO3)cc1 [paroxetine]
[5]
  effect in the LPS-induced inflammation model of depression: do not have any effect

## COc1ccc(C(CN(C)C)C2(O)CCCCC2)cc1 (stereo not drawn) [venlafaxine]
[5]
  effect in the LPS-induced inflammation model of depression: do not have any effect
